Measured values from US9709557B2, “Anthraquinone based near IR emitting compounds and uses thereof” (LIFE TECHNOLOGIES CORPORATION, priority 2008, dated 2017).

Tests used:
Live Jurkat cells [1] = experiment: DNA staining of live cells treated with RNase (Example 37); format: cell-based, human; conditions: 5 μM and 10 μM, 37° C. or room temperature, 30 min
Procedure: Live Jurkat cells (human T-lymphocyte) were stained with Compound 9 with and without RNase treatment to assess DNA selectivity of the compound. Live Jurkat cells were suspended at 5×10^5 cells/ml in each RPMI media with 10% FBS. The dye was added to each of one mL cell suspensions at concentrations 5 μM and 10 μM. Duplicate conditions (dye concentration and incubation temperature) were tested. RNase was added to one test and incubated along with the dye. The other test was left untreated (no RNase present). The samples were incubated at 37° C. or room temperature for 30 minutes while protected from light. Cells were run through a Becton Dickinson (BD) LSRII Flow Cytometer, as described in Example 36.

Live Jurkat cells [2] = experiment: Comparison of DNA stains on cell viability (Example 44); format: cell-based; conditions: human, 72 h, 5 μM
Procedure: Live Jurkat cells are suspended at 5×10^5 cells/ml in complete RPMI media with 10% FBS. Four aliquots of 10 ml each of the cell suspension are made. A final concentration of 5 μM Hoechst 33342 (Invitrogen Corporation) is added to one aliquot, a final concentration of 5 μM DRAQ5 (Biostatus Limited, UK) is added to one aliquot, a final concentration of 5 μM Compound 9 is added to one aliquot, and one aliquot remains untreated as a control. All four aliquots are placed in a 37° C. waterbath for 30 minutes in protected from light. After the incubation, all cell suspensions are centrifuged, the cells are pelleted and the supernatant discarded. To each aliquot, 5 ml media is added. Four culture flasks are prepared by adding 35 ml media to each. One 5 ml aliquot of cells is added to one flask for each on the four cell suspensions aliquots. The flasks are placed in a 37° C. incubator with 5% CO2 in the dark for 72 hours. Each flask of cells is then gently mixed and cell suspension is removed for testing. The cell concentration and image is performed using the Cellometer instrument from Nexcelom. Percentage and absolute cell counts of live and dead cells for each treatment are determined using the LIVE/DEAD Viability/Cytotoxicity Kit (Invitrogen Corporation, Carlsbad, Calif.) with COUNTBRIGHT Absolute Counting Beads (Invitrogen Corporation). This involves adding one ml cell suspension to a 12×75 mm test tube and adding 2 μl of a 50 μM calcein AM solution to identify living cells and 4 μl of a 2 mM ethidium homodimer-1 solution to identify dead cells. The cell suspension is mixed and incubated for 20 minutes at room temperature protected from light. After the end of the incubation, 50 μl of well mixed COUNTBRIGHT absolute counting beads are added to each test tube. Each sample is run through the Becton Dickinson (BD) LSRII Flow Cytometer. Forward Scatter (FS) versus Side Scatter (SS) dual parameter plot is used to gate main cell population, and a separate gate is made around the bead population. Fluorescence is collected using 488 nm excitation laser with 530/30 bandpass and 610/20 bandpass emission filters. Markers on a dual parameter plot of calcein fluorescence versus ethidium homodimer-1 fluorescence is used to obtain percent of cells which are living and dead, as well as number of cell events recorded. By using the COUNTBRIGHT absolute counting beads assay, the absolute number of living and dead cells is calculated by using the equation: A/B×C/D=concentration of cells/μL (A=number of cell events, B=number of bead events, C=assigned bead count, D=volume of the sample in μl).

Live Jurkat cells [3] = experiment: DNA staining of live cells, 15 minute incubation (Example 46); format: cell-based, human; conditions: 2.5, 5, 10 μM, 37° C., 15 min; 488 and 633 nm lasers, 695/40
Procedure: Compound 9 is diluted as a 5 mM concentration in DMSO. Live Jurkat cells are suspended at 5×10^5 cells/ml in RPMI media with 10% Fetal Bovine Serum (FBS). Compound 9 was is added to each of one mL cell suspensions at concentrations 2.5 μM, 5 μM, 10 μM and then incubated at 37° C. for 15 minutes while protected from light. Cells are run through the Becton Dickinson (BD) LSRII Flow Cytometer. Forward Scatter (FS) vs Side Scatter (SS) dual parameter plot is used to gate main cell population. Fluorescence is collected using two lasers: the 488 nm excitation laser with 695/40 bandpass emission filter, and using the 633 nm excitation laser with 695/40 bandpass emission filter. Collection of 10,000 events gated on the main population of cells was performed using a flow rate of ˜200 events/second. […] A typical DNA cell cycle histogram was generated, showing G0/G1 phase, S phase, and G2/M phase, as obtained on the live cell gate, with all concentrations of the compound.

Live Jurkat cells [4] = experiment: DNA staining of live cells, 15 minute incubation, MODFIT analysis (Example 47); format: cell-based, human; conditions: 1.25, 2.5, 5, 10 μM, 37° C. and room temperature, 15 min
Procedure: Live Jurkat cells are suspended at 5×10^5 cells/ml in RPMI media Compound 9 is added to each of one mL cell suspensions at final concentrations 1.25 μM, 2.5 μM, 5 μM, and 10 μM and then incubated at 37° C. and room temperature for 15 minutes while protected from light. Cells are run through the Becton Dickinson (BD) LSRII Flow Cytometer. Forward Scatter (FS) versus Side Scatter (SS) dual parameter plot is used to gate main cell population. Fluorescence is collected using two lasers: the 488 nm excitation laser with 695/40 bandpass emission filter, and using the 633 nm excitation laser with 695/40 bandpass emission filters, collecting 10,000 events at flow rate of ˜200 events/second. The data is further analyzed using MODFIT LT Flow Cytometry Modeling Software from Verity Software House, Inc. to look at ratio of G2/G1 and the % CV of G1 phase.

[5] = system: U-2 OS cells (ATCC HTB-96); experiment: Imaging of cells stained with near-IR DNA stain (Example 48); format: cell-based; conditions: 20 μM, live, fixed or simultaneously fixed cells
Procedure: Live U-2 OS cells (ATCC HTB-96) were treated with Compound 9 under various conditions and imaged with a 10×/0.3 objective on an ArrayScan VTI automated microscope platform (ThermoFisher/Cellomics). […] Such staining patterns have been routinely utilized in auto-focus and cell identification in automated microscopy. Cells were fixed with 3.7% formaldehyde (diluted from Sigma F1635) in the presence of 20 μM Compound 9 for 30 minutes at room temperature. The fixed cells were imaged and show similar prominent nuclear and dim cytosolic labeling (FIG. 4).

CN(C)CCNC(=O)CNc1ccc(O)c2c1C(=O)c1c(O)ccc(N)c1C2=O [Compound 9]
DNA selectivity, staining with and without RNase (Live Jurkat cells [1]): DNA selective
% Dead Cells (Live Jurkat cells [2]): 26.4%
% Living Cells (Live Jurkat cells [2]): 71.2%
Cell Count (Cellometer) (Live Jurkat cells [2]): 2.54 × 10^5 cells/mL
Cell Count (Flow Cytommetry) (Live Jurkat cells [2]): 0.7 × 10^5 cells/mL
DNA content cell cycle staining (Live Jurkat cells [3]): demonstrated staining for DNA content cell cycle
% CV of G1-phase (Live Jurkat cells [4]): < 8%
staining pattern [5]: prominent nuclear and relatively dim cytsolic staining
